Data from ChEMBL document CHEMBL3301361, “Experimental in vitro DMPK and physicochemical data on a set of publicly disclosed compounds”.

Legend:
in vitro [1] = conditions: human, plasma, PPB
in vitro [2] = conditions: SD, HW or BN, rat, plasma

Row | Structure (SMILES) | fraction unbound at 5 h (in vitro [1]) | fraction unbound at 5 h (in vitro [2])
1 | O=C(O)CNC(=O)c1ncccc1O | 0.232 | 0.24
2 | O=C(NCc1ccccn1)c1cc(-c2ccccc2)nc2ccccc12 | 0.013 | 0.02
3 | CC(C)(Oc1ccc(Cl)cc1)C(=O)N1CCN(c2ccccn2)CC1 | 0.0077 | 0.0092
4 | Cc1ccc(NC(=O)Nc2nnc(-c3ccncc3)s2)cc1 | 0.0061 | 0.0064
5 | CN(c1ccccc1)S(=O)(=O)c1ccc(NC(=O)C(C)(O)C(F)(F)F)cc1 (configuration not stated) | 0.0229 | 0.024
6 | Cc1ccc(S(=O)(=O)NCCSc2nnnn2-c2ccc(C(N)=O)cc2)cc1 | 0.101 | 0.19
7 | Cc1cc(I)cc2c1NC(C(=O)O)C1CC=CC21 (configuration not stated) | 0.002 | 0.007
8 | COc1ccc2c(c1)C(=O)C(=O)N2CC1COc2ccccc2O1 (configuration not stated) | 0.0066 | 0.0059
9 | Cc1cc(C)c(C)c(Cn2ccc3c(/C=N/NC(=O)c4ccc(O)c(C#N)c4)cccc32)c1C | 0.04 | 0.0032
10 | Cc1nc2ccc(NS(=O)(=O)c3ccc4c(c3)OCCO4)cc2s1 | 0.0033 | 0.0067
11 | Cc1ccc(S(=O)(=O)Nc2ccc3nc(C)oc3c2)cc1 | 0.0209 | 0.051
12 | Cc1onc(-c2c(Cl)cccc2Cl)c1NC(=O)OCc1c(F)cccc1Cl | 0.002 | 0.003
13 | Cc1onc(-c2c(Cl)cccc2Cl)c1CC(=O)NCc1ccc(OCC(F)(F)F)nc1 | 0.009 | 0.0457
14 | O=c1cc(Cn2c(C3CCC3)nc3nccnc32)c2ccc(F)c(F)c2[nH]1 | 0.201 | 0.16
15 | CN(C)CCC1CCN(c2cc(C(=O)NC[C@H]3CC[C@H](CNC(=O)OC4CCOCC4)CC3)c3ccccc3n2)CC1 | 0.179 | 0.262
16 | Cc1ccc(S(=O)(=O)Nc2c(C(=O)NC3CCOCC3)c(C)nn2-c2ccccc2)cc1 | 0.0262 | 0.089
17 | O=c1cc(N2CCOCC2)nc2n(Cc3cccc(Cl)c3)ccn12 | 0.101 | 0.11
18 | COc1ccc(CCC[N+](C)(CCCc2ccc(OC)cc2)CCNC(=O)c2nc(Cl)c(N)nc2N)cc1 | 0.163 | 0.157
19 | COc1cccc2c1c(NS(=O)(=O)c1ccc(Cl)s1)nn2Cc1cccc(CNC(C)=O)c1 | 0.0066 | 0.0028
20 | Cn1c(-c2cc(=O)c(O)c[nH]2)nn(S(=O)(=O)NC(=O)N2C[C@H](NC(=O)/C(=N\OC(C)(C)C(=O)O)c3csc(N)n3)C2=O)c1=O | 0.0447 | 0.0149
21 | Cc1nn(-c2ccccc2)nc1C(=O)N[C@@H]1COc2cccc(N3CCN(C)CC3)c2C1 | 0.0418 | 0.0383
22 | O=C(N[C@@H]1COc2cccc(-c3ccc(CO)nc3)c2C1)c1ccc(OCCOCC(F)(F)F)nc1 | 0.0409 | 0.089
23 | CC(C)C(NC(=O)c1ccccc1)C(=O)c1ccc([N+](=O)[O-])cc1 (configuration not stated) | 0.0418 | 0.069
24 | CC(C)C(NC(=O)c1ccccc1)C(=O)c1ccc(F)cc1 (configuration not stated) | 0.0499 | 0.0836

Row | Structure (SMILES) | fraction unbound at 5 h (in vitro [1]) | fraction unbound at 5 h (in vitro [2])
25 | CC(C)C(NC(=O)c1ccccc1)C(=O)c1ccc(C#N)cc1 (configuration not stated) | 0.0928 | 0.124
26 | CC(C)C(NC(=O)c1cc(Cl)ccc1C(F)(F)F)C(=O)c1ccc(C#N)cc1 (configuration not stated) | 0.0262 | 0.0428
27 | CC(C)(C)C(NC(=O)c1ccccc1)C(=O)c1ccc(Cl)cc1 (configuration not stated) | 0.006 | 0.0081
28 | COc1ncc(-c2cccc(C#N)c2CCNC(=O)c2ccc(OCCC(F)(F)F)nc2)cn1 | 0.119 | 0.139
29 | COc1ncc(-c2ccccc2C(F)(F)CNC(=O)c2ccc(COCC(F)(F)F)nc2)cn1 | 0.0099 | 0.129
30 | Cc1cnc(-c2c(F)ccc(F)c2CCNC(=O)c2ccc(COCC(F)(F)F)nc2)cn1 | 0.0801 | 0.28
31 | COc1cnc(-c2cccc(F)c2C(F)(F)CNC(=O)c2ccc(COCC(F)(F)F)nc2)cn1 | 0.0328 | 0.0457
32 | O=c1cc(N2CCOCC2)nc(NCc2ccccc2)[nH]1 | 0.266 | 0.19
33 | O=c1cc(N2CCOCC2)nc(NCc2cccc3ccccc23)[nH]1 | 0.0321 | 0.0251
34 | O=c1cc(N2CCOCC2)nc(NCc2cccc(Cl)c2Cl)[nH]1 | 0.0209 | 0.0179
35 | O=c1cc(N2CCOCC2)nc(NCc2cccc(Cl)c2)[nH]1 | 0.0705 | 0.0477
36 | O=c1cc(N2CCOCC2)nc(NCc2c(Cl)cccc2Cl)[nH]1 | 0.04 | 0.0418
37 | O=C(NCc1cccc(OC(F)(F)F)c1)C1c2ccccc2C(=O)N1CCc1ncc(F)cn1 (configuration not stated) | 0.0447 | 0.179
38 | O=C(NCc1ccc(F)c(OC(F)(F)F)c1)C1c2ccccc2C(=O)N1CCc1ncc(F)cn1 (configuration not stated) | 0.0321 | 0.0988
39 | O=C(NCc1ccc(F)c(C(F)(F)F)c1)C1c2ccccc2C(=O)N1CCc1ncc(F)cn1 (configuration not stated) | 0.0477 | 0.129
40 | O=C(NCc1ccc(OC(F)(F)F)cc1)C1c2cccc(O)c2C(=O)N1CCc1ncc(F)cn1 (configuration not stated) | 0.0179 | 0.0418
41 | CC(Cc1ccccn1)N1C(=O)c2ccccc2C1C(=O)NCc1ccc(OC(F)(F)F)cc1 (configuration not stated) | 0.0111 | 0.0366
42 | O=C(NCc1ccc(OC(F)(F)F)cc1)C1c2ccccc2C(=O)N1CCc1ncc(F)cn1 (configuration not stated) | 0.0477 | 0.0928
43 | O=C(NCc1ccc(OC(F)(F)F)cc1)C1c2ccccc2C(=O)N1C[C@@H]1CCCO1 (some centres not stated) | 0.0358 | 0.0606
44 | O=C(NCc1ccc(OC(F)(F)F)cc1)C1c2ccccc2C(=O)N1CCc1ccccn1 (configuration not stated) | 0.0358 | 0.0447
45 | O=C(NCc1ccc(OCC(F)(F)F)nc1)C1c2ccccc2C(=O)N1CCc1ccccn1 (configuration not stated) | 0.0928 | 0.371
46 | COc1ccc(-c2c(C(=O)N3CCC[C@H]3CO)cc3cccnn23)cc1 | 0.11 | 0.262
47 | CCN(CCO)C(=O)c1oc2cccnc2c1-c1cccc(C(F)(F)F)c1 | 0.0872 | 0.139
48 | CN(Cc1cccc2ccccc12)c1cc(N2CCOCC2)nc(=O)[nH]1 | 0.0568 | 0.0064

Row | Structure (SMILES) | fraction unbound at 5 h (in vitro [1]) | fraction unbound at 5 h (in vitro [2])
49 | O=c1nc(N2CCOCC2)cc(N(CCO)Cc2cccc3ccccc23)[nH]1 | 0.139 | 0.151
50 | CC1CN(c2cc(=O)[nH]c(NCc3cccc4ccccc34)n2)CCO1 (configuration not stated) | 0.013 | 0.024
51 | CN1CCN(S(=O)(=O)c2ccc(-c3cnc(N)c(C(=O)Nc4cnccc4CN4CCCC4)n3)cc2)CC1 | 0.0784 | 0.0988
52 | Cc1ncc(C(N)=S)nc1-c1ccc([C@H]2CC[C@H](CC(=O)O)CC2)cc1 | 0.028 | 0.0099
53 | Cc1nc(C(F)F)c(C(N)=O)nc1-c1ccc([C@H]2CC[C@H](CC(=O)O)CC2)cc1 | 0.0544 | 0.0383
54 | Cc1nc(C(C)C)c(C(N)=O)nc1-c1ccc([C@H]2CC[C@H](CC(=O)O)CC2)cc1 | 0.0262 | 0.0119
55 | Cc1nc(C(C)C)c(-c2ccc([C@H]3CC[C@H](CC(=O)O)CC3)cc2)nc1C(N)=O | 0.0219 | 0.0119
56 | NC(=O)c1cncc(-c2ccc([C@H]3CC[C@H](CCO)CC3)cc2)n1 | 0.028 | 0.013
57 | Cc1nc(C)c(-c2ccc([C@H]3CC[C@H](CC(=O)NC(C)(C)C(=O)O)CC3)cc2)nc1C(N)=O | 0.0784 | 0.0251
58 | NC(=O)c1cncc(-c2ccc([C@H]3CC[C@H](CC(=O)O)CC3)cc2)n1 | 0.035 | 0.0063
59 | CCC[C@H](c1ccc(C(=O)O)c(Oc2cccc(Cl)c2)c1)N1CCC[C@H](n2cc(C)c(=O)[nH]c2=O)C1 | 0.0119 | 0.016
60 | CCC[C@@H](c1ccc(C(=O)O)c(Oc2cccc(Cl)c2)c1)N1CCC[C@H](n2cc(C)c(=O)[nH]c2=O)C1 | 0.007 | 0.0179
61 | O=C(CCCN1CC[Si](O)(c2ccc(Cl)cc2)CC1)c1ccc(F)cc1 | 0.0544 | 0.0544
62 | O=C(CCCN1CC[Si](O)(c2cccc(C(F)(F)F)c2)CC1)c1ccc(F)cc1 | 0.0409 | 0.0447
63 | Cc1nnc(-c2ccc(N3CCC(Oc4cc(F)ccc4Cl)CC3)nn2)o1 | 0.0179 | 0.0082
64 | N#Cc1cc(S(=O)(=O)Nc2ncns2)ccc1Oc1ccc(C(F)(F)F)cc1-c1ccnnc1 | 0.0059 | 0.0209
65 | N#Cc1cc(S(=O)(=O)Nc2ncc(Cl)s2)ccc1Oc1ccc(Cl)cc1-c1ccnn1C1CNC1 | 0.0081 | 0.0142
66 | CC(C)(C)OC(=O)N[C@H](Cc1ccccc1C(F)(F)F)C(=O)NCc1nc2cccnc2n1Cc1ccccc1 | 0.0111 | 0.002
67 | CC(C)Oc1cc(Nc2nc(N[C@@H](C)c3ccc(F)cc3)nc(NC(CO)CO)c2Cl)n[nH]1 | 0.0358 | 0.0428
68 | CC(C)c1noc(C2CCN(c3ncnc(Nc4ccc(S(C)(=O)=O)cc4F)c3[N+](=O)[O-])CC2)n1 | 0.0099 | 0.016
69 | CC(NC(=O)c1cc2ccccc2[nH]1)c1ccccc1 (configuration not stated) | 0.0219 | 0.0366
70 | c1ccc2c(c1)CCC[C@H]2Nc1nc2ccccc2[nH]1 | 0.007 | 0.0437
71 | Cc1onc(-c2ccccc2)c1C(=O)N(C)c1ccc(Cl)cc1 | 0.0418 | 0.0752
